The first test has as its target JNK1 (Homo sapiens (Human), UniProt P45983). Description: In Vitro JNK1 Assay (TR-FRET, phosphorylation of GST-c-Jun).
Conditions: not given
In kind it is biochemical. As to the method: Phosphorylation of GST-c-Jun protein (amino acid residues 1-79) was measured as JNK1 activity. […] The reaction buffer contained 50 mM HEPES, pH […], 1 mM DTT, 0.1 mM Na3VO4 and 0.2 mg/mL BSA. After 30 min. incubation at room temperature, the reaction was terminated by adding buffer containing 8 mM EDTA and a polyclonal anti-phospho-c-Jun antibody (Cell Signaling #9261L), followed by an additional incubation of 30 min. at room temperature. […] Time-resolved Fluorescence Resonance Energy Transfer (TR-FRET) signals were measured 1 hr. later on the EnVision reader (Perkin Elmer). Compound potency was assessed at 10 serially diluted concentrations. Percentage of inhibition at each concentration was determined to generate an IC50 value for each compound.
On the technique in general: TR-FRET usually uses a lanthanide donor and a delayed reading to cut background.
Chain of JNK1 (P45983 whole entry): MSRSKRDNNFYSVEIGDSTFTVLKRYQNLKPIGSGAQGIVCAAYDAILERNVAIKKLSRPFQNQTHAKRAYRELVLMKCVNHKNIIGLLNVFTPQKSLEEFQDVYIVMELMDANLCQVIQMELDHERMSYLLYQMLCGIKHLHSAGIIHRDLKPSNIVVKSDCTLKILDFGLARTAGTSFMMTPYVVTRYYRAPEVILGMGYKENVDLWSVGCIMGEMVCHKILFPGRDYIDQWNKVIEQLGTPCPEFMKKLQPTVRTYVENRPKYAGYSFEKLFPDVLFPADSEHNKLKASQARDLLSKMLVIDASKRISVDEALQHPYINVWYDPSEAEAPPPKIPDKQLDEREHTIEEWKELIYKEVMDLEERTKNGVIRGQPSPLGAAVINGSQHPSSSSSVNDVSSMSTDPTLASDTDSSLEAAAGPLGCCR
By IC50 is commonly meant the concentration at which inhibition is half-maximal. A high value points to weaker potency in that assay. For `O=C(NCc1cn(-c2ccccc2)c2cc(Cl)ccc2c1=O)NC1CCN(C(=O)Oc2ccccc2)CC1` [Example I-193, 4-[3-(7-Chloro-4-oxo-1-phenyl-1,4-dihydro-quinolin-3-ylmethyl)-ureido]-piperidine-yl-carboxylic acid phenyl ester], the IC50 came to 180 nM.

The test is the same for the next values; noted with them: 0.2 nM active JNK1 kinase, 26.7 nM GST-c-Jun, 2 μM ATP, 30 min at room temperature.
`CC(C)(C)OC(=O)N[C@H]1CC[C@H](NC(=O)NCc2cn(-c3ccccc3)c3cc(Cl)ccc3c2=O)CC1` [Example I-182, {4-[3-(7-Chloro-4-oxo-1-phenyl-1,4-dihydro-quinolin-3-ylmethyl)-ureido]-cyclohexyl}-carbamic acid tert-butyl ester] had an IC50 of 700 nM.
Compound `CC(C)(C)OC(=O)N1CCC(NC(=O)NCc2cn(-c3ccccc3)c3cc(Cl)ccc3c2=O)C1` (stereo not drawn) [Example I-183, 3-[3-(7-Chloro-4-oxo-1-phenyl-1,4-dihydro-quinolin-3-ylmethyl)-ureido]-pyrrolidine-1-carboxylic acid tert-butyl ester] registered an IC50 of 910 nM.
Regarding `O=C(NCc1cn(-c2ccccc2)c2cc(Cl)ccc2c1=O)NC1CCCC1` [Example I-184, 1-(7-Chloro-4-oxo-1-phenyl-1,4-dihydro-quinolin-3-ylmethyl)-3-cyclopentyl-urea], the IC50 came to 920 nM.
Still for that read-out and setting: with `COC(=O)[C@H]1CC[C@@H](NC(=O)NCc2cn(-c3ccccc3)c3cc(Cl)ccc3c2=O)CC1` [Example I-185, 4-[3-(7-Chloro-4-oxo-1-phenyl-1,4-dihydro-quinolin-3-ylmethyl)-ureido]-cyclohexanecarboxylic acid methyl ester] the figure was 1100 nM; with `O=C(NCc1cn(-c2ccccc2)c2cc(Cl)ccc2c1=O)N1CCCC1` [Example I-186, Pyrrolidine-1-carboxylic acid (7-chloro-4-oxo-1-phenyl-1,4-dihydro-quinolin-3-ylmethyl)-amide], 1200 nM.
Same read-out and setting: with `CN1CCN(C(=O)NCc2cn(-c3ccccc3)c3cc(Cl)ccc3c2=O)CC1` [Example I-187, 4-Methyl-piperazine-1-carboxylic acid (7-chloro-4-oxo-1-phenyl-1,4-dihydro-quinolin-3-ylmethyl)-amide] the figure was 1400 nM; with `O=C(NCc1cn(-c2ccccc2)c2cc(Cl)ccc2c1=O)N1CCCCC1` [Example I-188, Piperidine-1-carboxylic acid (7-chloro-4-oxo-1-phenyl-1,4-dihydro-quinolin-3-yl-methyl)-amide], 1700 nM; with `COC(=O)[C@H]1CC[C@H](NC(=O)NCc2cn(-c3ccccc3)c3cc(Cl)ccc3c2=O)CC1` [Example I-189, 4-[3-(7-Chloro-4-oxo-1-phenyl-1,4-dihydro-quinolin-3-ylmethyl)-ureido]-cyclohexanecarboxylic acid methyl ester], 2000 nM.
As to `O=C(NCc1cn(-c2ccccc2)c2cc(Cl)ccc2c1=O)N1CCC(c2ccccc2)CC1` [Example I-190, 4-Phenyl-piperidine-1-carboxylic acid (7-chloro-4-oxo-1-phenyl-1,4-dihydro-quinolin-3-ylmethyl)-amide], the IC50 was 2100 nM.
For `O=C(NCc1cn(-c2ccccc2)c2cc(Cl)ccc2c1=O)NC1C2CC3CC1CC(O)(C3)C2` (stereo not drawn) [Example I-191, 1-(7-Chloro-4-oxo-1-phenyl-1,4-dihydro-quinolin-3-ylmethyl)-3-(5-hydroxy-adamantan-2-yl)-urea], the IC50 was 240 nM.
On the same count and under the same terms, with `CC(C)(C)OC(=O)N1CCC(NC(=O)NCc2cn(-c3ccccc3)c3cc(Cl)ccc3c2=O)CC1` [Example I-192, 4-[3-(7-Chloro-4-oxo-1-phenyl-1,4-dihydro-quinolin-3-ylmethyl)-ureido]-piperidine-1-carboxylic acid tert-butyl ester] the figure was 60 nM; with `O=C(NCc1cn(-c2ccccc2)c2cc(Cl)ccc2c1=O)NC1CCN(C(=O)c2ccccc2)CC1` [Example I-194, 1-(1-Benzoyl-piperidin-4-yl)-3-(7-chloro-4-oxo-1-phenyl-1,4-dihydro-quinolin-3-yl-methyl)-urea], 190 nM; with `O=C(NCc1cn(-c2ccccc2)c2cc(Cl)ccc2c1=O)NC1CCN(C(=O)OCc2ccccc2)CC1` [Example I-195, 4-[3-(7-Chloro-4-oxo-1-phenyl-1,4-dihydro-quinolin-3-ylmethyl)-ureido]-piperidine-1-carboxylic acid benzyl ester], 580 nM.
`O=C(NCc1cn(-c2ccccc2)c2cc(Cl)ccc2c1=O)NC1CCN(S(=O)(=O)c2ccccc2)CC1` [Example I-196, 1-(7-Chloro-4-oxo-1-phenyl-1,4-dihydro-quinolin-3-ylmethyl)-3-(1-phenylsulfonyl-piperidin-4-yl)-urea] returned a half-maximal inhibitory concentration (IC50) of 1100 nM.
For `CS(=O)(=O)N1CCC(NC(=O)NCc2cn(-c3ccccc3)c3cc(Cl)ccc3c2=O)CC1` [Example I-197, 1-(7-Chloro-4-oxo-1-phenyl-1,4-dihydro-quinolin-3-ylmethyl)-3-(1-methanesulfonyl-piperidin-4-yl)-urea], 2100 nM corresponded to half-maximal inhibition (IC50).
In turn, `CC(=O)N1CCC(NC(=O)NCc2cn(-c3ccccc3)c3cc(Cl)ccc3c2=O)CC1` [Example I-198, 1-(1-Acetyl-piperidin-4-yl)-3-(7-chloro-4-oxo-1-phenyl-1,4-dihydro-quinolin-3-ylmethyl)-urea] registered an IC50 of 2200 nM.
Still for that read-out and setting: with `CS(=O)(=O)C1CCN(C(=O)N2CCC(NC(=O)NCc3cn(-c4ccccc4)c4cc(Cl)ccc4c3=O)CC2)CC1` [Example I-199, 1-(7-Chloro-4-oxo-1-phenyl-1,4-dihydro-quinolin-3-ylmethyl)-3-[1-(4-methanesulfonyl-piperidine-1-carbonyl)-piperidin-4-yl]-urea] the figure was 1600 nM; with `O=C(NCc1cn(-c2ccccc2)c2cc(Cl)ccc2c1=O)N1CCOCC1` [Example I-200, Morpholine-4-carboxylic acid (7-chloro-4-oxo-1-phenyl-1,4-dihydro-quinolin-3-ylmethyl)-amide], 850 nM.
`O=C(NCc1cn(-c2ccccc2)c2cc(Cl)ccc2c1=O)Nc1ccccc1` [Example I-201, 1-(7-Chloro-4-oxo-1-phenyl-1,4-dihydro-quinolin-3-ylmethyl)-3-phenyl-urea] showed a concentration for half-maximal inhibition (IC50) of 550 nM.
The same measure, in the same setting: with `CN(C)c1ccc(NC(=O)NCc2cn(-c3ccccc3)c3cc(Cl)ccc3c2=O)cc1` [Example I-202, 1-(7-Chloro-4-oxo-1-phenyl-1,4-dihydro-quinolin-3-ylmethyl)-3-(4-dimethylamino-phenyl)-urea] the figure was 630 nM; with `COc1ccc(NC(=O)NCc2cn(-c3ccccc3)c3cc(Cl)ccc3c2=O)cc1` [Example I-203, 1-(7-Chloro-4-oxo-1-phenyl-1,4-dihydro-quinolin-3-ylmethyl)-3-(4-methoxy-phenyl)-urea], 650 nM.
Take `O=C(NCc1cn(-c2ccccc2)c2cc(Cl)ccc2c1=O)Nc1ccc(OC(F)(F)F)cc1` [Example I-205, 1-(4-trifluoromethoxy-phenyl)-3-(7-chloro-4-oxo-1-phenyl-1,4-dihydro-quinolin-3-yl-methyl)-urea]: half-maximal inhibition (IC50) required 1800 nM.
Turning to `COC(=O)c1ccc(NC(=O)NCc2cn(-c3ccccc3)c3cc(Cl)ccc3c2=O)cc1` [Example I-206, 4-[3-(7-Chloro-4-oxo-1-phenyl-1,4-dihydro-quinolin-3-ylmethyl)-ureido]-benzoic acid methyl ester], the IC50 worked out at 2700 nM.

The values above are taken from patent publication US8501732B2, “Aminomethyl quinolone compounds” (Hoffmann-La Roche Inc., priority 2011, dated 2013).
